Test results published in publication PMC8699473, “An Easily Expandable Multi-Drug LC-MS Assay for the Simultaneous Quantification of 57 Oral Antitumor Drugs in Human Plasma” (Cancers, 2021).

Experiment: Short-term stability in spiked pooled human plasma (bench-top, 4 °C, 56 °C)

Structure (SMILES)	Short-time stability (1h, 56°C) Accuracy [%] (validation standard 2xLLOV)	Short-time stability (24h, 4°C, without daylight) Accuracy [%] (validation standard 2xLLOV)	Short-time stability (24h, RT, with daylight) Accuracy [%] (validation standard 2xLLOV)	Short-time stability (24h, RT, without daylight) Accuracy [%] (validation standard 2xLLOV)	Short-time stability (1h, 56°C) Accuracy [%] (validation standard LLOV)	Short-time stability (24h, 4°C, without daylight) Accuracy [%] (validation standard LLOV)	Short-time stability (24h, RT, with daylight) Accuracy [%] (validation standard LLOV)	Short-time stability (24h, RT, without daylight) Accuracy [%] (validation standard LLOV)	Short-time stability (1h, 56°C) Accuracy [%] (validation standard MOV)	Short-time stability (24h, 4°C, without daylight) Accuracy [%] (validation standard MOV)	Short-time stability (24h, RT, with daylight) Accuracy [%] (validation standard MOV)	Short-time stability (24h, RT, without daylight) Accuracy [%] (validation standard MOV)	Short-time stability (1h, 56°C) Accuracy [%] (validation standard ULOV)	Short-time stability (24h, 4°C, without daylight) Accuracy [%] (validation standard ULOV)	Short-time stability (24h, RT, with daylight) Accuracy [%] (validation standard ULOV)	Short-time stability (24h, RT, without daylight) Accuracy [%] (validation standard ULOV)	concentrations in short-term stability investigations (24 h, room temperature, with or without light)
Cc1cn(-c2cc(NC(=O)c3ccc(C)c(Nc4nccc(-c5cccnc5)n4)c3)cc(C(F)(F)F)c2)cn1 [Nilotinib]	47.8	101.2	107.8	108.6	28.5	96.7	94.9	96.7	52.5	100.3	110.2	114.5	44.6	97.1	108.0	110.3	–
COC(=O)c1ccc2c(c1)NC(=O)/C2=C(\Nc1ccc(N(C)C(=O)CN2CCN(C)CC2)cc1)c1ccccc1 [Nintedanib]	48.8	103.5	102.5	105.4	56.0	96.7	99.4	96.1	51.2	100.1	104.3	103.0	43.9	88.8	105.8	102.1	–
NC(=O)c1cccc2cn(-c3ccc([C@@H]4CCCNC4)cc3)nc12 [Niraparib]	53.4	96.9	95.2	93.8	46.8	93.8	92.3	91.9	51.1	100.2	97.6	96.5	43.8	92.7	95.8	94.0	–
O=C(c1cc(Cc2n[nH]c(=O)c3ccccc23)ccc1F)N1CCN(C(=O)C2CC2)CC1 [Olaparib]	64.1	101.8	91.3	90.8	80.6	110.7	108.3	110.6	49.4	98.6	89.4	88.9	42.9	99.7	99.0	94.2	–
C=CC(=O)Nc1cc(Nc2nccc(-c3cn(C)c4ccccc34)n2)c(OC)cc1N(C)CCN(C)C [Osimertinib]	29.9	95.8	61.4	61.7	28.7	85.8	62.0	60.5	30.1	96.3	75.7	72.0	26.0	86.7	67.4	63.9	60.5–75.7%
